We go through 5 compounds from patent US11541055B2, “Inhibitors of human immunodeficiency virus replication” (ViiV Healthcare UK (No. 5) LIMITED, priority 2018, dated 2023).

The nature of series [1]: Compound cytotoxicity, XTT-based colorimetric assay. Type of series: cell-based. Particulars: human; uninfected MT2 cells, day 4, XTT. The method, then:
Compound cytotoxicity and the corresponding CC50 values were determined using the same protocol as described in the antiviral assay except that uninfected cells were used. Cytotoxicity was assessed on day 4 in uninfected MT2 cells by using a XTT (2,3-bis[2-Methoxy-4-nitro-5-sulfophenyl]-2H-tetrazolium-5-carboxyanilide inner salt)-based colorimetric assay (Sigma-Aldrich, St Louis, Mo.).
A general note: Tetrazolium dyes change colour on reduction, which living cells bring about.

Series [2] relates to recombinant NL4-3 virus (Renilla luciferase) in MT-2 cells. Description: HIV cell culture assay (antiviral activity, luciferase readout). Type of series: cell-based. To be noted: Renilla, NL43. The method, then: HIV cell culture assay—MT-2 cells, 293T cells and the proviral DNA clone of NL4-3 virus were obtained from the NIH AIDS Research and Reference Reagent Program. MT-2 cells were propagated in RPMI 1640 media supplemented with 10% heat inactivated fetal bovine serum (FBS), […]. The 293T cells were propagated in DMEM media supplemented with 10% heat inactivated FBS, […] penicillin G and […] streptomycin. A recombinant NL40.3 proviral clone, in which a section of the nef gene was replaced with the Renilla luciferase gene, was used to make the reference virus used in these studies. The recombinant virus was prepared through transfection of the recombinant NL4-3 proviral clone into 293T cells using Transit-293 Transfection Reagent from Minis Bio LLC (Madison, Wis.). Supernatent was harvested after 2-3 days and the amount of virus present was titered in MT-2 cells using luciferase enzyme activity as a marker by measuring luciferase enzyme activity. Luciferase was quantitated using the EnduRen Live Cell Substrate from Promega (Madison, Wis.). Antiviral activities of compounds toward the recombinant virus were quantified by measuring luciferase activity in MT-2 cells infected for 4-5 days with the recombinant virus in the presence of serial dilutions of the compound.
The 50% effective concentration (EC50) was calculated by using the exponential form of the median effect equation where (Fa)=1/[1+(ED50/drug conc.)m] (Johnson V A, Byington R T. Infectivity Assay. In Techniques in HIV Research. ed. Aldovini A, Walker B D. 71-76. New York: Stockton Press. 1990). The 50% inhibitory concentration (EC50) was calculated by using the exponential form of the median effect equation where percent inhibition=1/[1+(EC50/drug concentration)m], where m is a parameter that reflects the slope of the concentration-response curve.

Regarding `Cn1nc(NS(C)(=O)=O)c2c(Cl)ccc(-n3c([C@H](Cc4cc(F)cc(F)c4)NC(=O)Cn4nc(C(F)F)c5c4C(F)(F)[C@@H]4C[C@H]54)nc4cc(-c5cccnn5)ccc4c3=O)c21` (atropisomer, axis not shown; (P)) [Example 49, N—((S)-1-((3P)-3-(4-chloro-1-methyl-3-(methylsulfonamido)-1H-indazol-7-yl)-4-oxo-7-(pyridazin-3-yl)-3,4-dihydroquinazolin-2-yl)-2-(3,5-difluorophenyl)ethyl)-2-((3bS,4aR)-3-(difluoromethyl)-5,5-difluoro-3b,4,4a,5-tetrahydro-1H-cyclopropa[3,4]cyclopenta[1,2-c]pyrazol-1-yl)acetamide], the CC50 at 4 days in series [1] was more than 500000 pM. Also, the EC50 in series [2] turned out to be 71 pM.
The matching figures for `CC(C)c1nccc(-c2ccc3c(=O)n(-c4ccc(Cl)c5c(NS(C)(=O)=O)nn(C)c45)c([C@H](Cc4cc(F)cc(F)c4)NC(=O)Cn4nc(C(F)F)c5c4C(F)(F)[C@@H]4C[C@H]54)nc3c2)n1` (atropisomer, axis not shown; (P)) [Example 67, N—((S)-1-((3P)-3-(4-chloro-1-methyl-3-(methylsulfonamido)-1H-indazol-7-yl)-7-(2-isopropylpyrimidin-4-yl)-4-oxo-3,4-dihydroquinazolin-2-yl)-2-(3,5-difluorophenyl)ethyl)-2-((3bS,4aR)-3-(difluoromethyl)-5,5-difluoro-3b,4,4a,5-tetrahydro-1H-cyclopropa[3,4]cyclopenta[1,2-c]pyrazol-1-yl)acetamide]: more than 500000 pM and 150 pM.
The matching figures for `Cc1nccc(-c2ccc3c(=O)n(-c4ccc(Cl)c5c(NS(C)(=O)=O)nn(CC(F)F)c45)c([C@H](Cc4cc(F)cc(F)c4)NC(=O)Cn4nc(C(F)F)c5c4C(F)(F)[C@@H]4C[C@H]54)nc3c2)n1` (atropisomer, axis not shown) [Example 121, N-[(1S)-1-{3-[4-chloro-1-(2,2-difluoroethyl)-3-methanesulfonamido-1H-indazol-7-yl]-7-(2-methylpyrimidin-4-yl)-4-oxo-3,4-dihydroquinazolin-2-yl}-2-(3,5-difluorophenyl)ethyl]-2-[(2S,4R)-9-(difluoromethyl)-5,5-difluoro-7,8-diazatricyclo[4.3.0.0^2,^4]nona-1(6),8-dien-7-yl]acetamide]: more than 500000 pM and 67 pM.
The compound `Cc1ccc(-c2ccc3c(=O)n(-c4ccc(Cl)c5c(NS(C)(=O)=O)nn(CC(F)F)c45)c([C@H](Cc4cc(F)cc(F)c4)NC(=O)Cn4nc(C(F)F)c5c4C(F)(F)[C@@H]4C[C@H]54)nc3c2)nn1` (atropisomer, axis not shown) [Example 134, N-[(1S)-1-{3-[4-chloro-1-(2,2-difluoroethyl)-3-methanesulfonamido-1H-indazol-7-yl]-7-(6-methylpyridazin-3-yl)-4-oxo-3,4-dihydroquinazolin-2-yl}-2-(3,5-difluorophenyl)ethyl]-2-[(2S,4R)-9-(difluoromethyl)-5,5-difluoro-7,8-diazatricyclo[4.3.0.0^2,^4]nona-1(6),8-dien-7-yl]acetamide] returned a CC50 at 4 days in series [1] of more than 500000 pM. For the same compound, in series [2], the EC50 came to 32 pM.
The matching figures for `Cn1nc(NS(C)(=O)=O)c2c(Cl)ccc(-n3c([C@H](Cc4cc(F)cc(F)c4)NC(=O)Cn4nc(C(F)F)c5c4C(F)(F)[C@@H]4C[C@H]54)nc4cc(-c5ncccc5C(F)(F)F)ccc4c3=O)c21` (atropisomer, axis not shown; (P)) [Example 30, N—((S)-1-((3P)-3-(4-chloro-1-methyl-3-(methylsulfonamido)-1H-indazol-7-yl)-4-oxo-7-(3-(trifluoromethyl)pyridin-2-yl)-3,4-dihydroquinazolin-2-yl)-2-(3,5-difluorophenyl)ethyl)-2-((3bS,4aR)-3-(difluoromethyl)-5,5-difluoro-3b,4,4a,5-tetrahydro-1H-cyclopropa[3,4]cyclopenta[1,2-c]pyrazol-1-yl)acetamide]: more than 500000 pM and 220 pM.

One may read the CC50 as the concentration giving 50% cytotoxicity. A lower CC50 goes with greater toxicity to the cells. The EC50 is the concentration giving half of the maximal effect.
